Where a name gives a salt, the structure may show the parent alone. Read-outs that look alike come from different tables or passages of the source.
What was measured:
α1 -adrenoreceptors = assay: Radioligand binding, (125I)-HEAT, rabbit urethral membranes
Protocol: (§1) α-adrenoreceptors can be by use of a ^3 H- or 125 I- labelled specific antagonist (or agonist) on membrane preparations of the concerned organ, here rabbit urethra.
(§2) A male rabbit urethral grinding was filtered then centrifugated. The filtrate thus obtained is a membrane preparation which was incubated with a radioactive ligand, namely (^125 I)-HEAT [wherein HEAT is 2-[2-(3-iodio-4-hydroxyphenyl)ethyl-aminoethyl]-tetralone for the α1 -adrenoreceptors, and (^3 H)-rauwolscine for the α2 -adrenoreceptors.
(§3) The incubations were carded out in the absence or in the presence of an increasing concentration of the product to be tested. The affinity was measured by means of the inhibition coefficient (Ki).

[1] = target: T1, isolated rabbit urethra (contraction induced by noradrenaline) (Oryctolagus cuniculus, UniProt O02824); assay: Isolated rabbit urethra: antagonism of noradrenaline-induced contraction; format: cell-based; conditions: against noradrenaline, isolated male rabbit urethra, 5 experiments; read-out: pA2 (converted)
T1 construct: from tissue; host or cells: isolated urethra of male rabbits
T1 sequence (O02824 1-466): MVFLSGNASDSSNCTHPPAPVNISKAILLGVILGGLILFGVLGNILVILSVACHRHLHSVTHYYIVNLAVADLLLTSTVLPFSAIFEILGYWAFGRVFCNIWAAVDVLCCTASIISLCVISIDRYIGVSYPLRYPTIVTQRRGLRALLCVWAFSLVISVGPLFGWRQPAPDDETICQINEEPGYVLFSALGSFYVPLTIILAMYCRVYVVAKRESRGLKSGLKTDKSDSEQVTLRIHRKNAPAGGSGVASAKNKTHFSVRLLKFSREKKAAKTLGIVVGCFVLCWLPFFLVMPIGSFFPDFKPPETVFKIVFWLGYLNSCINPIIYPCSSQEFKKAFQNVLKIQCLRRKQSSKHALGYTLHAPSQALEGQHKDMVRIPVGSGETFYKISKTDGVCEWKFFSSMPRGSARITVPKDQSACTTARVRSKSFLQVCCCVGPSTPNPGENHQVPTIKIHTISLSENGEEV
Protocol: After slaughtering of male rabbits, each urethra was taken out then placed into a receptacle containing a physiological saline aqueous solution, and kept at 37° C. with an oxygen/carbon oxide mixture (95/5 p/p). One end of the urethra was fixed to a pressure captor linked to a recording device for measuring the organ contractions.
Contracturing effects of noradrenaline were determined by succesive infusions of increasing […] up to the contraction corresponding to the maximal amplitude. The measures were carded out with and without DAM.HCl.
The activity of DAM.HCl was measured as a pA2 value, pA2 being here the cologarithm of the antagonist molar concentration in the presence of which the noradrenaline concentration needs to be multiplied by two to obtain the same effect in the absence of antagonist.

liver = assay: Absence of hepatotoxicity, 2-month daily i.v. injection in rats; format: in vivo, rat; conditions: male Wistar rats, 1.5 mg/kg daily i.v. for 2 months
Protocol: Adult male Wistar rats were daily injected with 1.5 mg/kg of DAM.HCl in saline solution (i.e. the solution of Ex 1) per i.v. route for 2 months, then slaughtered.

α2 -adrenoreceptors = assay: Radioligand binding, (3H)-rauwolscine, rabbit urethral membranes; conditions: male rabbit urethral membrane preparation
Protocol: as §1, §2, §3

[2] = pure water and aqueous solutions buffered at pH 5-7; cited from earlier work
[3] = cited from earlier work
[4] = tested on: increase in UP induced by electric stimulation of the hypogastric nerve; assay: Anesthetized dogs: hypogastric nerve stimulation, urethral pressure, AP and HR; format: in vivo, dog; conditions: anesthetized Beagle dogs
Protocol: Adult male Beagle dogs were anesthetized by i.v. injection of sodium barbital (30 mg/kg).
The cannulation of each carotid and urethra allowed measurement of AP and UP. By derivation of the AP signal, the heart rate (HR) was recorded.
The increase in UP was induced by electric stimulation of the hypogastric nerve distal roots (10 ms, 30 Hz, 5s, 6-10 V). That increase in UP is determined before and 15 minutes after the injection of the α-blocking agent to be tested.
The results were expressed by calculating a ID-50 defined as the dose of α-blocking agent which inhibits 50% of the effects of the hypogastric nerve stimulation on UP. The effects of said ID-50 were determined on AP and HR in order to obtain a variation percentage with respect to the initial values.

[5] = tested on: urethral and arterial pressures induced by noradrenaline; assay: Anesthetized rabbits: noradrenaline-induced increases in urethral and arterial pressure; format: in vivo, rabbit; conditions: Oryctolagus cuniculus, iv, noradrenaline-induced increase, i.v.
Protocol: Male White New-Zealand rabbits (weighing 3 kg each) were anesthetized with ethyl-urethane. Arterial pressure (AP) was measured with a pressure captor linked to a catheter located in the carotid; urethral pressure (UP) was determined with a pressure captor linked to a catheter introduced into the urethra and located at the level of the vesical base. The femoral vein was also catheterized for administering the products to be tested.
The increases in the urethral and arterial pressures, which were induced by noradrenaline, were determined after i.v. injections of increasing doses for periods of 3 minutes each, from 15 minutes before the injection of the α-blocking product to be tested to 15 minutes after said injection.
The results thus obtained are expressed hereinafter an inhibiting dose 50% (ID-50) which is defined as the dose of a-blocking product in the presence of which, the effect of the largest dose of noradrenaline is divided by a factor 2.

[6] = Hepatotoxicity on administration (general statement); format: in vivo; conditions: administered iv at 50 mg or less doses
[7] = Stability in aqueous solution; format: physicochemical
Description: In the parent application it was pointed out that DAM, the active ingredient, is effectively soluble and stable in water in the form of its hydrochloride salt. Deacetyl moxisylyte hydrochloride (DAM.HCl) is soluble up to a concentration of 10% p/v, which is the upper therapeutically acceptable concentration, in pure (i.e. distilled, bidistilled or preferably deionized) water and in aqueous solutions buffered at pH 5-7. Water solutions containing 1% p/v of deacetyl moxisylyte hydrochloride without any antioxidant and kept at pH 5, 6 and 7, are stable for 15 days at 25° C. and for 90 minutes at 121° C. […] More details regarding the solubility and stability in water of DAM.HCl are given in the parent application.

Cc1cc(OCCN(C)C)c(C(C)C)cc1O [DAM.HCl, Deacetyl moxisylyte hydrochloride]
times more active on α1 -adrenoreceptors than on α2 -adrenoreceptors (α1 -adrenoreceptors; from Ki values of table II): six
Ki (α1 -adrenoreceptors; male rabbit urethral membrane preparation, (125I)-HEAT): 109 ± 20 nM
Kb [1]: 3.16 nM
hepatotoxicity (study of organs, analysis of the liver) (liver): no sign of hepatotoxicity
Ki (α2 -adrenoreceptors): 637 ± 94 nM
solubility (soluble up to a concentration) [2]: > 10 % p/v
stability of water solution at 25° C. ([3]; 1% p/v, no antioxidant, pH 5, 6 and 7, 25° C.): 15 days
stability of water solution at 121° C. ([3]; 1% p/v, no antioxidant, pH 5, 6 and 7, 121° C.): 90 min
stability of water solution with Na2 SO3 at 95° C. ([3]; 1% p/v, pH 5, 6 and 7, sodium sulfite 0.1 p/v, 95° C., no coloration): 15 days
Effect of ID-50 on AP (variation percentage with respect to the initial values) ([4]; at the ID-50 dose): -6%
Effect of ID-50 on HR (variation percentage with respect to the initial values) ([4]; at the ID-50 dose): -5%
ID-50, effect on UP ([4]; hypogastric nerve stimulation, 15 minutes after injection, in mg/kg): 0.05 ± 0.01
ED50 ([5]; n = 5, read-out: ID-50 i.v., AP (arterial pressure)): 3.5 ± 0.65 mg/kg
ED50 ([5]; n = 5, read-out: ID-50 i.v., UP (urethral pressure)): 0.4 ± 0.03 mg/kg

CC(=O)Oc1cc(C(C)C)c(OCCN(C)C)cc1C [moxisylyte, 4-[2-(dimethylamino)ethoxy]-2-methyl-5-(1methylethyl)phenol acetate, reference compound]
stability of solution stabilized with dimethyl-beta-cyclodextrin at 45° C. ([3]; pH 5 solution, 1 mg/ml, dimethyl-beta-cyclodextrin as stabilizing agent, 45° C.): 3 months

Cc1cc(OCCN(C)C)c(C(C)C)cc1O [DAM, 4-[2-(dimethylamino)ethoxy]-2-methyl-5-(1-methylethyl)phenol]
hepatotoxicity i.v. [6]: substantially devoid of hepatotoxicity
stability in aqueous solution ([7]; aqueous solution): stable
degradation on sterilization of aqueous solution ([7]; classical sterilization, e.g. autoclave 15 minutes at 121° C. or sterilizing filtration): without degradation

— patent publication US5561154A, “Treatment of acute urinary retention” (Institut de Recherches Chimiques et Bioloques Appliquees …, priority 1995, dated 1996)
